Experimental data from ChEMBL document CHEMBL1268938, “Identification of a red-emitting fluorescent ligand for in vitro visualization of human serotonin 5-HT(1A) receptors” (Bioorg Med Chem Lett, 2010).

Biological target: T1, 5-hydroxytryptamine receptor 1A (Homo sapiens, UniProt P08908)
T1 sequence (P08908 whole entry): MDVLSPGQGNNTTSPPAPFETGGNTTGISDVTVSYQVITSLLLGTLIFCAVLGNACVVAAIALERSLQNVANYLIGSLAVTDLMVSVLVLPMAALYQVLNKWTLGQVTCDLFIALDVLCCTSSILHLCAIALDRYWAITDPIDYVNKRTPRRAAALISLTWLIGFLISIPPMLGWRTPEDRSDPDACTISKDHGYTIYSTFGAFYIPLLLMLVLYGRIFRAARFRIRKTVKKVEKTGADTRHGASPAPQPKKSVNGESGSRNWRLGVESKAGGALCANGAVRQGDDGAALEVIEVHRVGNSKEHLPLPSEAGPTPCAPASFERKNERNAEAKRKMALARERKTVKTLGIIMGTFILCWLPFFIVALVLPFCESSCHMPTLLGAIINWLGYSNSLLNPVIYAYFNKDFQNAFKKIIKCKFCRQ
Assay: Displacement of [3H]8-OH-DPAT from human cloned 5HT1A receptor expressed in HEK293 cells
Format: cell-based

| Structure (SMILES) | Ki |
| --- | --- |
| COc1cccc(CCN2CCN(c3ccccc3OC)CC2)c1 | 2.4 nM |
| CCN(CC)c1ccc2cc(/C=C/C3=[N+](CCCCCC(=O)Oc4cccc(CCN5CCN(c6ccccc6OC)CC5)c4)c4ccccc4C3(C)C)c(=O)oc2c1 | 35 nM |
| COc1ccccc1N1CCN(CCCCCNC(=O)c2ccc(SC3=C(/C=C/C4=[N+](CCCCS(=O)(=O)[O-])c5ccccc5C4(C)C)CCC/C3=C\C=C3\N(CCCCS(=O)(=O)O)c4ccccc4C3(C)C)cc2)CC1 | 65.8 nM |
| COc1ccccc1N1CCN(CCc2cccc(OCCCCCOc3cccc(CCN4CCN(c5ccccc5OC)CC4)c3)c2)CC1 | 1.7 nM |
| CCCCCN1CCN(c2ccccc2OC)CC1 | 5.16 nM |
